The structures appear in SMILES notation. Values after ≈ are worked out from the molar mass of the structure shown. Read-outs that look alike come from different tables or passages of the source.

These results are taken from patent US9096536B2, “Asymmetrically substituted anthrapyridazone derivatives as cytostatics” (BS-154 S.P. ZO.O., priority 2011, dated 2015).

In experiment [1] the test system is HL60/DX. Briefly: Substrate properties: activity against HL60/DX in the presence of BSO (MRP pump inhibitor). Format: cell-based, human. Particulars: FIG. 3. The text has this:
Activity in vitro against human promyelolytic leukemia HL60/DX in the presence of D-L-buthionine-(S,R)-sulphoximine (BSO), MRP pump inhibitor.

Experiment [2] concerns human prostate cancer cell line PC3. Description: Cytostatic activity in vitro, prostate cancer PC3. Format: cell-based. Particulars: 72 h continuous exposure. From the text: (§1) Table 5 presents activity in vitro of anthrapiridazone derivatives towards three cell lines of prostate cancer, naturally multidrug resistant, in comparison with references doxorubicin, mitoxantrone and taxol.

The next experiment deals with MCF7/DX. Description: Cytostatic activity in vitro, resistant breast cancer subline MCF7/DX (MDR-1). It counts as cell-based, human. Particulars: for IC50: 72 h continuous exposure; for RI resistance index MCF7/DX: IC50(resistant cells)/IC50(sensitive cells), MCF7/DX vs MCF7. From the text:
(§2) It should be mentioned that resistance index is above one order of magnitude better in comparison with doxorubicin and mitoxantrone.

Another experiment has as its system CT-DNA. Briefly: Interaction with isolated CT-DNA, fluorescence competition with ethidium bromide. It counts as binding. The settings on record: for IC50: 50% decrease in fluorescence intensity of DNA-bromide ethydine complex; for Kapp relative constant of DNA-compound bonding: Kapp = (1.26/C50) × KEtBr, KEtBr = 10^7M. From the text: It could be supposed that this property explains cytostatic activity of compounds. In Table 9 there are presented quantitative data on the affinity to DNA of tested compounds using the fluorescence method and competitive affinity to DNA of bromine ethydine and tested compounds.

The test system of experiment [3] is human prostate cancer cell line DU145. Briefly: Cytostatic activity in vitro, prostate cancer DU145. Format: cell-based. The settings on record: 72 h continuous exposure.
From the text: as §1

The test system of experiment [4] is human promyelocytic leukemia cell line HL-60. Briefly: Cytostatic activity in vitro, HL-60 sensitive line. Format: cell-based. The settings on record: read-out: HL60 IC50.
The next experiment deals with HT29/MIT. Briefly: Cytostatic activity in vitro, mitoxantrone-induced resistant subline HT29/MIT. The settings on record: for IC50: 72 h continuous exposure; for RI resistance index HT29/MIT: IC50(resistant cells)/IC50(sensitive cells), HT29/MIT vs HT29. Format: cell-based, human. From the text:
(§3) Table 7 presents activity in vitro of selected anthrapyridazone derivatives according to the invention towards sensitive and resistant (MDR-1 type) cell line of human colon adenocarcinoma with resistance induced by mitoxantrone.

In experiment [5] the test system is human prostate cancer cell line LNCaP. Description: Cytostatic activity in vitro, prostate cancer LNCaP. The settings on record: 72 h continuous exposure. It counts as cell-based.
From the text: as §1

The subject of experiment [6] is human breast cancer cell line MCF7. Description: Cytostatic activity in vitro, breast cancer MCF7. It counts as cell-based. The settings on record: 72 h continuous exposure.
From the text: as §2

Experiment [7] has as its system HL60/VINC. Briefly: Substrate properties: activity against HL60/VINC in the presence of cyclosporine A (MDR-1 pump inhibitor). Format: cell-based, human. The settings on record: FIG. 2. From the text: FIG. 2 shoes experimentally determined substrate properties of selected antgraoyridazone derivatives vs. Doxorubicin and Mitroxantrone. Activity in vitro against human promyelacytic leykemia cell line HL60/VINC in the presence of cyclosporine A (MDR-1 pump inhibitor).

Experiment [8] has as its system HL60/VINC. Briefly: Cytostatic activity in vitro, vincristine-induced resistant subline (MDR-1). Format: cell-based, human. Particulars: for RI resistance index HL60/VINC: HL60/VINC vs HL60, 72 h.
The subject of experiment [9] is HL60/DX. Description: Cytostatic activity in vitro, doxorubicin-induced resistant subline (MRP). It counts as cell-based, human. Particulars: for RI resistance index HL60/DX: IC50(resistant cells)/IC50(sensitive cells).
Experiment [10] has as its system human colon adenocarcinoma HT29. Description: Cytostatic activity in vitro, colon adenocarcinoma HT29. It counts as cell-based. The settings on record: 72 h continuous exposure.
From the text: as §3

A further experiment deals with MES-SA/DX5. Briefly: Cytostatic activity, panel: MES-SA/DX5 resistant to doxorubicin. It counts as cell-based. The text has this: (§4) Tables 8A and 8B present cytostatic activity in vitro of selected anthrapyridazone derivatives according to the invention against panel of sensitive and resistant cell lines, in comparison with doxorubicin, cisplatine and mitoxantrone.

For another experiment, the system named is uterus cancer MES-SA. Description: Cytostatic activity, panel: uterus cancer MES-SA. It counts as cell-based. Particulars: Homo sapiens, MES-SA; 72 h continuous exposure.
From the text: as §4

For the next experiment, the system named is colon cancer LoVo. Description: Cytostatic activity, panel: colon cancer LoVo. The settings on record: Homo sapiens, LoVo; 72 h continuous exposure. Format: cell-based.
From the text: as §4

Another experiment relates to LoVo/DX. Briefly: Cytostatic activity, panel: LoVo/DX resistant to doxorubicin. It counts as cell-based.
From the text: as §4

[11] abbreviates: 50% inhibition of cell growth after 72 h continuous exposure.
[12] abbreviates: IC50(resistant cells)/IC50(sensitive cells).
The mark [13] stands for this setting: Homo sapiens, HL-60, 96 h continuous exposure.

For the compound `CN(C)CCn1nc2c3c(c(NCCN)ccc3c1=O)C(=O)c1ccccc1-2` [BS-121, 2-[2-(Dimethylamino)ethyl]-6-[2-(aminoethyl)amino)-2,7-dihydro-3H-dibenzo[de,h]cynnoline-3,7-dione], the “Effect of MRP protein inhibitor (BSO) on cytostatic activity” value in the experiment on HL60/DX [1] is listed as “only partially”. The IC50 in experiment [2] came out at 37.6 ± 8.1 nM; in the experiment on MCF7/DX it was 45.3 ± 8.1 nM; in the experiment with CT-DNA it was 260 ± 20 nM; in experiment [3] it was 11.3 ± 2.6 nM; in experiment [4] (setting [11]), 1.3 ± 0.1 nM; in the experiment on HT29/MIT it was 39.4 ± 4.3 nM. Besides, the IC50 was 5.5 ± 0.7 nM in [5]; 39.6 ± 0.8 nM in experiment [6]; 14.2 ± 1.7 nM with HL60/VINC [8] (72 h continuous exposure); 564 ± 72 nM in the experiment on HL60/DX [9] (72 h continuous exposure); 9.7 ± 1 nM in experiment [10]. Besides, the “RI resistance index MCF7/DX” value in the experiment on MCF7/DX is listed as 1.1. The Kapp relative constant of DNA-compound bonding in the experiment on CT-DNA was 4.83e+07 M⁻¹. In addition, the “RI resistance index HT29/MIT” value with HT29/MIT is recorded as 4.1. In addition, the “Effect of blocking MDR-1 pump with cyclosporine A (CSA) on cytostatic activity” value with HL60/VINC [7] is listed as “does not essentially affect the cytostatic activity”. Besides, the “RI resistance index HL60/VINC” value in the experiment with HL60/VINC [8] (setting [12]) was 10.9. Moreover, the “RI resistance index HL60/DX” value in the experiment on HL60/DX [9] (HL60/DX vs HL60, 72 h) came to 433.8.

In the case of `COc1cccc2c1C(=O)c1c(O)c3c(c(O)c1C2=O)C[C@@](O)(C(=O)CO)C[C@@H]3O[C@H]1C[C@H](N)[C@H](O)[C@H](C)O1` [Doxorubicin, reference compound], in the experiment on HL60/DX [1], the “Effect of MRP protein inhibitor (BSO) on cytostatic activity” value was “essentially influences the cytostatic activity”. The IC50 came to 13.6 µg/mL (≈ 25 µM) with MES-SA/DX5 (Homo sapiens, MES-SA/Dx5, 72 h continuous exposure); 0.0705 µg/mL (≈ 0.13 µM) in the experiment on uterus cancer MES-SA; 0.224 µg/mL (≈ 0.413 µM) in the experiment with colon cancer LoVo; 106 ± 7 nM in experiment [2] (Homo sapiens); 932 ± 145 nM in the experiment with MCF7/DX (Homo sapiens, MCF7/DX); 80 nM in the experiment on CT-DNA. The IC50 stood at 38 ± 7.6 nM in experiment [3] (Homo sapiens, DU-145); 16 ± 1 nM in experiment [4] (Homo sapiens, HL-60, 50% inhibition of cell growth after 72 h continuous exposure); 9.5 ± 2 nM in experiment [4] (setting [13]); 97.1 ± 20.9 nM in the experiment on HT29/MIT (Homo sapiens, HT-29); 22.4 ± 1.9 nM in experiment [5] (Homo sapiens, LNCaP); 19 ± 3.3 nM in [6] (Homo sapiens, MCF7). In addition, the IC50 worked out at 12.1 µg/mL (≈ 22.2 µM) with LoVo/DX (LoVo/DX, 72 h continuous exposure); 882 ± 68 nM with HL60/VINC [8] (Homo sapiens, HL60/vinc, 72 h continuous exposure); 734 ± 72 nM with HL60/VINC [8] (Homo sapiens, HL60/vinc, 96 h continuous exposure, read-out: HL60VINC IC50); 9480 ± 1300 nM in the experiment with HL60/DX [9] (Homo sapiens, HL-60, 72 h continuous exposure); 1860 ± 143 nM in the experiment with HL60/DX [9] (setting [13]); 64.5 ± 19.2 nM in experiment [10] (Homo sapiens, HT-29). In addition, in the experiment with MES-SA/DX5 (setting [12]), the “RI MES-SA MES-SA/DX5” value amounted to 181.2. Further, the “RI resistance index MCF7/DX” value in the experiment with MCF7/DX came out at 49.1. Also, the Kapp relative constant of DNA-compound bonding with CT-DNA is 1.5e+08 M⁻¹. Also, in the experiment with HT29/MIT, the “RI resistance index HT29/MIT” value is reported as 1.5. Moreover, in the experiment with HL60/VINC [7], the “Effect of blocking MDR-1 pump with cyclosporine A (CSA) on cytostatic activity” value is listed as “has positive influence on maintaining the cytostatic activity”. Also, the “RI LoVo LoVo/DX” value in the experiment on LoVo/DX (setting [12]) is reported as 54.7. Further, the “RI resistance index HL60VINC” value with HL60/VINC [8] (IC50(resistant cells)/IC50(sensitive cells), 96 h) is on record as 77.3. The “RI resistance index HL60/VINC” value with HL60/VINC [8] (setting [12]) is 55.1. Also, the “RI resistance index HL60/DX” value in the experiment with HL60/DX [9] (96 h) was 195.7; with HL60/DX [9] (HL60/DX vs HL60, 72 h) it was 592.8.

For `Nc1ccc2c(=O)n(CCN3CCOCC3)nc3c2c1C(=O)c1ccccc1-3` [PDZ-4, 2-(2-Morpholinethyl)-6-amino-2,7-dihydro-3H-dibenzo[de,h]cynnoline-3,7-dione], the IC50 in experiment [2] was determined as 5110 ± 206 nM; in the experiment on CT-DNA, 16800 ± 410 nM; in experiment [3], 3280 ± 355 nM; in experiment [4] (setting [11]), 2080 ± 169 nM; in experiment [5], 2790 ± 276 nM; in the experiment on HL60/VINC [8] (72 h continuous exposure), 2550 ± 286 nM. The same compound came in with an IC50 with HL60/DX [9] (72 h continuous exposure) of 4720 ± 389 nM. In the experiment with CT-DNA, this compound returned a Kapp relative constant of DNA-compound bonding of 700000 M⁻¹. Moreover, the “RI resistance index HL60/VINC” value in the experiment with HL60/VINC [8] (setting [12]) is listed as 1.2. In the experiment with HL60/DX [9] (HL60/DX vs HL60, 72 h), the “RI resistance index HL60/DX” value was 2.3.

Take `CN(C)CCCn1nc2c3c(c(N)ccc3c1=O)C(=O)c1ccccc1-2` [PDZ-3, 2-[3-(Dimethylamino)propyl]-6-amino-2,7-dihydro-3H-dibenzo[de,h]cynnoline-3,7-dione]: the IC50 worked out at 709 ± 163 nM in experiment [2]; 1760 ± 120 nM in the experiment with CT-DNA; 725 ± 121 nM in experiment [3]; 269 ± 41 nM in experiment [4] (setting [11]); 549 ± 85 nM in experiment [5]; 509 ± 54 nM with HL60/VINC [8] (72 h continuous exposure). The IC50 in the experiment on HL60/DX [9] (72 h continuous exposure) amounted to 919 ± 89 nM. Moreover, the Kapp relative constant of DNA-compound bonding in the experiment with CT-DNA amounted to 7.1e+06 M⁻¹. Also, the “RI resistance index HL60/VINC” value in the experiment with HL60/VINC [8] (setting [12]) worked out at 1.9. Moreover, the “RI resistance index HL60/DX” value with HL60/DX [9] (HL60/DX vs HL60, 72 h) was found to be 3.4.

By IC50 is commonly meant the point on the concentration scale where inhibition reaches its midpoint.
